The target of one data set is CBP (Homo sapiens, UniProt Q92793). As to the kind of experiment: HAT in vitro assay, 10-dose IC50, CBP. The format is biochemical. Particulars: substrate Histone H3, 3 μM Acetyl-CoA; read-out: Compound IC50 CBP. The protocol:
For HAT in vitro assay, MC2884 activity was also tested in vitro and IC50 was calculated as indicated in the scheme. […] Reactions were carried out at 3 μM Acetyl-CoA. Empty cells indicate no inhibition or compound activity that could not be fit to an IC50 curve.

The next data set addresses T1, CYP3A4 (Homo sapiens, UniProt P08684).
T1 construct: from tissue; host or cells: human liver microsomes
As to the kind of experiment: Cytochrome P450 inhibition, CYP3A4. The format is in vitro ADME. Particulars: probe midazolam (2.5 µM), human liver microsomes, observed only at 25 μM. Here is the method:
This provided a dose of 2 mg free base material/kg when Cytochrome p450 inhibition (5 isoform iC50 administered iv in a 5 mL/kg dosing volume. determination) mouse terminal ip pK study ADME-Tox Cytochrome P450 inhibition of Compound MC2884 was given ip at a dose of 2 mg/kg MC2884 using human liver microsomes as an estimation to a group of 24 normally fed male CD1 mice in a 10 mL/ of in vitro metabolism. kg injection volume. Terminal blood samples (> 230 μL) MC2884 (0.1 μM–25 μM) was incubated with were taken under CO2 from groups of 3 mice at each of 8 human liver microsomes and NADPH in the presence time-points post dose (0.083, 0.25, 0.5, 1, 2, 4, 8 and 24 h) of a cytochrome P450 isoform-specific probe substrate. and placed into heparinized tubes. […]
All samples were stored at −20° C measuring the formation of a fluorescent metabolite. […]
Cyp2C19 inhibition (0.1 mg/mL) and NADPH (1 mM) in the presence of the probe substrate midazolam (2.5 μM) for 5 min at Six test compound samples at concentrations 37° C. […] For the CYP1A incubations, the reactions microsomes (0.5 mg/mL) and NADPH (1 mM) in the were terminated by methanol, and the formation of the presence of the probe substrate mephenytoin (25 μM) metabolite, resorufin, was monitored by fluorescence for 60 min at 37° C. […]
In general terms: Liver microsomes are a subcellular fraction often used to study metabolism.

Data set [1] concerns neuroblastoma SHSY5Y cells. As to the kind of experiment: Cell death induction in SHSY5Y cells. It is filed as cell-based. Particulars: 3 μM, 48 h. Here is the method: When tested in neuroblastoma SHSY5Y cells at tetrahydro-4H -pyran-4-one MC2912 failed in inducing
3 μM for 48 h, MC2884 and its analogues furnished cell death in SHSY5Y cells, whereas its thio-analogue
(Supplementary SAR Table 1). In general, the SHSY5Y similarly to what observed in NB4 cells.
than NB4 cells. Anyway, also in this cell line the death in both cell lines such as MC2910, 2912, 2909,
(MC2909), and bis 3,5-dibromophenyl (MC2910) were acetylation and EZH2 deregulation (SAR Figure 2). In […]
3-phenyl-1-propan-1-one chain at N1 (MC3187), which 3).

We go through one compound from paper PMC5986654, “Combined HAT/EZH2 modulation leads to cancer-selective cell death” (Oncotarget, 2018).

T1 sequence (P08684 whole entry): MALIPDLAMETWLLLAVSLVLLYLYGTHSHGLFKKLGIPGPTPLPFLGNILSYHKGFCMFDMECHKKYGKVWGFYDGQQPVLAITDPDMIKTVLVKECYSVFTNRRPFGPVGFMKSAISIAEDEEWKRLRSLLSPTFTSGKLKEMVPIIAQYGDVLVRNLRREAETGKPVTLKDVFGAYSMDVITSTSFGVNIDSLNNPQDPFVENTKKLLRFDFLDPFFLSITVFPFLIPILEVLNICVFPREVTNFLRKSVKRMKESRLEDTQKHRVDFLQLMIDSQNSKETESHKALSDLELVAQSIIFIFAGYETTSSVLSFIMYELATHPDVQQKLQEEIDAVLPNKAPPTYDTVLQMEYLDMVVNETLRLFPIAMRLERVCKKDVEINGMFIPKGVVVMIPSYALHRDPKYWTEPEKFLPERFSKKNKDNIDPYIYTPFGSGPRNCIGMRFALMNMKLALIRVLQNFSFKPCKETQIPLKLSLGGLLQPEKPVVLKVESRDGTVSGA
Sequence of CBP (Q92793 whole entry): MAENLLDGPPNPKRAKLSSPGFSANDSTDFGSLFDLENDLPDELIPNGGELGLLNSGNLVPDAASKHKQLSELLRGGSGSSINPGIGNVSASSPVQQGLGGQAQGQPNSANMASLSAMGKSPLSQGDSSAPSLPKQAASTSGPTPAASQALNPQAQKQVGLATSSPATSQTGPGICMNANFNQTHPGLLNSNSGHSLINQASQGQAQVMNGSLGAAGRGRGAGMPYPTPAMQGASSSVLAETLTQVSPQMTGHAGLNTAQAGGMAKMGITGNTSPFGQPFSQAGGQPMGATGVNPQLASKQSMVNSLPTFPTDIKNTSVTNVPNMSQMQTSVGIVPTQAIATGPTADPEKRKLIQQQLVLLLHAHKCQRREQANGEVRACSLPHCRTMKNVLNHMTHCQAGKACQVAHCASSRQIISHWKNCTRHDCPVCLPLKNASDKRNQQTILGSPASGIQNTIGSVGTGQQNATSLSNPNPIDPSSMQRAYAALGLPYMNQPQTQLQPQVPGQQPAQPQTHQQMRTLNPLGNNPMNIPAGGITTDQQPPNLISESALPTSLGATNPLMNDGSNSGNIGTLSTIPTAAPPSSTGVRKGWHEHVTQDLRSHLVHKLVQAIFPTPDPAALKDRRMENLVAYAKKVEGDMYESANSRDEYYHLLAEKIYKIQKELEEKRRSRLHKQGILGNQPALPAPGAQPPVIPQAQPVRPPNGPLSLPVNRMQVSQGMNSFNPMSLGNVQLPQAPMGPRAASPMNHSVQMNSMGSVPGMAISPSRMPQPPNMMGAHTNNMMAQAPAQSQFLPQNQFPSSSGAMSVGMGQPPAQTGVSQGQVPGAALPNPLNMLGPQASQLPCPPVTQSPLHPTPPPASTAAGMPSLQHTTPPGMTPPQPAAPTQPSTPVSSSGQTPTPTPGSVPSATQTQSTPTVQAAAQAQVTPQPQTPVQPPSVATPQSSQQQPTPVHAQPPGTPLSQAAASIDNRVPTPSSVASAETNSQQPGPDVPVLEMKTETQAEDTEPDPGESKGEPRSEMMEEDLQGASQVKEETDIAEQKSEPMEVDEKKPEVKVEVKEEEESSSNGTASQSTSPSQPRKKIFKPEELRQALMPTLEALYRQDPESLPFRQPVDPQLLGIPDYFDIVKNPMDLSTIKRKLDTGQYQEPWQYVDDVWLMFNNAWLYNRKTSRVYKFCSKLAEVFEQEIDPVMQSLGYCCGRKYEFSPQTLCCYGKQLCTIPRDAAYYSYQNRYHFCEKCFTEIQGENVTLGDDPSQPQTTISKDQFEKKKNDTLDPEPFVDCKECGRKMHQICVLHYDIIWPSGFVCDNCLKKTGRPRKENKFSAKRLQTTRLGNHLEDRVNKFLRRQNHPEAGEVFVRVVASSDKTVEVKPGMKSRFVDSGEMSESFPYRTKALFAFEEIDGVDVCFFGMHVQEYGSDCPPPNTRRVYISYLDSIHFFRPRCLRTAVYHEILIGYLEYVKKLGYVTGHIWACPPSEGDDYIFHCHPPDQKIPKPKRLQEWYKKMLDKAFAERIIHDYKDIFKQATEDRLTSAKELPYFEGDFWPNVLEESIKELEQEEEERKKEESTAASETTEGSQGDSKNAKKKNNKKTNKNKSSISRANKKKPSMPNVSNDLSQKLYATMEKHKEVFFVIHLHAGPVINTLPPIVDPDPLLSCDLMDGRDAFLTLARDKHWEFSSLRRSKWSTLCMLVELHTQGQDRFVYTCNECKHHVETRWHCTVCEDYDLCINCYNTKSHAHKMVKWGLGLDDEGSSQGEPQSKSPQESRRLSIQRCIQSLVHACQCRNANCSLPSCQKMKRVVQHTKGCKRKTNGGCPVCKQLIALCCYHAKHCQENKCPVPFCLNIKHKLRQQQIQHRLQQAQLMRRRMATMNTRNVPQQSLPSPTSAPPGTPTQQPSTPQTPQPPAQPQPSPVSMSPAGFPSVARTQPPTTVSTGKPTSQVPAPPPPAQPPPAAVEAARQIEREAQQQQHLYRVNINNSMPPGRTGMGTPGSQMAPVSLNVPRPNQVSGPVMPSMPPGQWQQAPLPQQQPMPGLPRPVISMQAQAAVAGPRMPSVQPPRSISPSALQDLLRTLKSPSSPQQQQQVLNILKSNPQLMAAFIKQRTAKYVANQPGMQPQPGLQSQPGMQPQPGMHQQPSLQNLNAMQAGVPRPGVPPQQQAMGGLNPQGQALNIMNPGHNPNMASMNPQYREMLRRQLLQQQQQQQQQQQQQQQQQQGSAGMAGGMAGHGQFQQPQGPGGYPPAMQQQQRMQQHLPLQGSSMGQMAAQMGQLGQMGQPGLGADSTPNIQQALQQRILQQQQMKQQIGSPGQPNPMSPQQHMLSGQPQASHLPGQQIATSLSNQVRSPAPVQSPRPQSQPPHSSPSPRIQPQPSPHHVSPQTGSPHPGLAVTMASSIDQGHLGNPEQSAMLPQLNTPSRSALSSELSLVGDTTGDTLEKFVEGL

With `O=C1/C(=C/c2cccc(Br)c2)CN(Cc2ccccc2)C/C1=C\c1cccc(Br)c1` [MC2884], on CBP, the IC50 – broadly, the concentration that inhibits the measured activity by half – was 3.27 µM. For the same compound, the inhibition (usually the percentage by which the read-out fell short of the control) at 5 min, 25 µM at CYP3A4 was 45%. In data set [1], the “% Cell death SHSY5Y cells” value is listed as 19.1%.
